In patent US4528133A, “Biologically active tripeptide and tetrapeptide alkylamides, and method for the preparation thereof” (SPOFA, spojene podniky pro zdravotnickou vyrobu, priority 1982, dated 1985):
pKi: −log10 of the molar value. Read-outs that look alike come from different tables or passages of the source. Where a SMILES comes first, the peptide text is derived from it. The star is where a group is joined. Undecanoyl = CCCCCCCCCCC(=O)*; Cbz = O=C(OCc1ccccc1)*; Butyryl = CCCC(=O)*; NHiBu = CC(C)CN*; NHPr = CCCN*

Key:
pancreatic elastase = pancreatic elastase (UniProt P00772); assay: Inhibition of pancreatic elastase (PE), Ki with synthetic nitroanilide substrates; format: biochemical
leucocytal elastase = target: T1, leucocytal elastase (Homo sapiens, UniProt P08246); assay: Inhibition of leucocytal elastase (LE), Ki with synthetic nitroanilide substrate; format: biochemical; settings: substrate Glt-(Ala)3-Val-Nan; for pKi: read-out: Inhibition constant Ki, LE, Glt--(Ala)3--Val--Nan
T1 sequence (P08246 30-267): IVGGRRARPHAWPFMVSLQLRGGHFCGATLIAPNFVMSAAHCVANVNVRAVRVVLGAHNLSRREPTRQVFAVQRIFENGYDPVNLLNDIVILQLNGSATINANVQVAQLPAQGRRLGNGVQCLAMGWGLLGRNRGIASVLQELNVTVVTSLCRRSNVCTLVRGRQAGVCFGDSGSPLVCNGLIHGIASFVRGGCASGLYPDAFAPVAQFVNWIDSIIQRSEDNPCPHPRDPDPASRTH

[1] = substrate Glt-(Ala)4-Nan, read-out: Inhibition constant Ki, PE, Glt--(Ala)4--Nan
[2] = substrate Suc-(Ala)4-Nan, read-out: Inhibition constant Ki, PE, Suc--(Ala)4--Nan

Chain of pancreatic elastase (P00772 27-266): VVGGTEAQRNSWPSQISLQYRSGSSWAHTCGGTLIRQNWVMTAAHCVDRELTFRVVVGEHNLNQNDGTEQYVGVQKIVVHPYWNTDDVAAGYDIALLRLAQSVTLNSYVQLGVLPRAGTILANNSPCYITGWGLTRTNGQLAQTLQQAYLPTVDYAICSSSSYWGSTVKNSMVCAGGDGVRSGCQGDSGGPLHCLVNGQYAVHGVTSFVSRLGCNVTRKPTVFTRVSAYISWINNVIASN

Row | SMILES | pKi (pancreatic elastase; [1]) | pKi (pancreatic elastase; [2]) | pKi (leucocytal elastase) | Inhibition constant Ki, LE, Glt--(Ala)3--Val--Nan (leucocytal elastase)
1 | CCNC(=O)[C@H](C)NC(=O)[C@H](C)NC(=O)[C@@H]1CCCN1C(=O)[C@H](CC(=O)O)NC(C)=O [Ac--Asp--Pro--Ala--Ala--NH--Et, N^α -Acetylaspartyl-prolyl-alanyl-alanine ethylamide] (Ac-DPAA-NHEt) | 4.47 | 4.60 | 3.00 | –
2 | CCCC(=O)N[C@@H](CC(=O)O)C(=O)N[C@@H](C)C(=O)N[C@@H](C)C(=O)N1CCC[C@H]1C(=O)NCC(C)C [Btr--Asp--Ala--Ala--Pro--NH--iBu, N^α -Butyrylaspartyl-alanyl-alanyl-proline isobutylamide] (Butyryl-DAAP-NHiBu) | 3.92 | 3.92 | 3.87 | –
3 | CCCNC(=O)[C@@H]1CCCN1C(=O)[C@H](C)NC(=O)[C@H](C)NC(=O)[C@H](CCC(=O)O)NC(=O)CCC [Btr--Glu--Ala--Ala--Pro--NH--Pr] (Butyryl-EAAP-NHPr) | 3.71 | 3.75 | 3.74 | –
4 | CCCCCCCCCC=CCC(CC(=O)O)C(=O)N[C@@H](C)C(=O)N[C@@H](C)C(=O)N[C@@H](C)C(=O)NCC (some centres unmarked) [Dde--Ala--Ala--Ala--NH--Et, N-(2-Dodecenylsuccinyl)alanyl-alanyl-alanine ethylamide] | 5.74 | 5.60 | – | no inhibition
5 | CCCCCCCCCC=CCC(CC(=O)O)C(=O)N[C@@H](C)C(=O)N[C@@H](C)C(=O)N[C@@H](C)C(=O)NCC(C)C (some centres unmarked) [Dde--Ala--Ala--Ala--NH--iBu] | 4.03 | 4.00 | 3.29 | –
6 | CCCCCCCCCC=CCC(CC(=O)O)C(=O)N[C@@H](C)C(=O)N[C@@H](C)C(=O)N1CCC[C@H]1C(=O)NCCC (some centres unmarked) [Dde--Ala--Ala--Pro--NH--Pr, N-(2-Dodecenylsuccinyl)alanyl-alanyl-proline propylamide] | 6.22 | 6.30 | 4.00 | –
7 | CCCCCCCCCCC(=O)N[C@@H](CC(=O)O)C(=O)N[C@@H](C)C(=O)N[C@@H](C)C(=O)N1CCC[C@H]1C(=O)NCC [UDA--Asp--Ala--Ala--Pro--NH--Et, N^α -Undecanoylaspartyl-alanyl-alanyl-proline ethylamide] (Undecanoyl-DAAP-NHEt) | 5.27 | – | 4.92 | –
8 | CCNC(=O)[C@H](C)NC(=O)[C@H](C)NC(=O)[C@H](C)NC(=O)[C@H](CCC(=O)O)NC(=O)OCc1ccccc1 [Z--Glu--Ala--Ala--Ala--NH--Et] (Cbz-EAAA-NHEt) | 3.76 | 4.55 | 3.14 | –
